Legend:
[1] = system: SK-BR-3; test: MTT assay, SK-BR-3; format: cell-based; conditions: Homo sapiens, 24 h, SK-BR-3, HER-2 +ve cell line, read-out: IC50 value after 24 hours of treatment
Excerpt: (§1) The 4T1 murine mammary tumor cell line and nine breast cancer cell lines representing the major breast cancer subtypes (ER+, HER2+, and TNBC) including MDA-MB-157, MDA-MB-436, MDA-MB-231, MDA-MB-453, MDA-MB-361, BT-474, SK-BR-3, MCF-7 and T47-D will be grown in RPMI or DMEM (Dulbecco's Modified Eagle Medium) media supplemented with 10% FBS (fetal bovine serum), 1% penicillin-streptomycin and 1% L-Glutamine. Patient derived xenograft cell lines BR7, BR11, and IBT will be established directly from breast cancer bone metastases specimens surgically resected from patients with informed consent. BR7 and BR11 specimens will be obtained from ER positive (HER2 negative and PR negative) metastatic breast cancer patients, while the IBT specimen will be obtained from a metastatic, triple negative breast cancer patient. Fresh tumor tissues will be quickly washed with ice cold PBS and minced into about 1-3 mm pieces in MEM medium (without FBS) using sterile razor blades. […] The cells will be treated with either 100 μM DMSO, AGX51, or a compound of the present technology such as AGX-A. The cell morphology and growth will be monitored daily for 1 week by microscopy for changes in morphology or cell death. […] Absorbance will then measured at 570 nm using a plate reader (Synergy 2, BioTek). […]

[2] = system: MDA-MB-361; test: MTT assay, MDA-MB-361; format: cell-based; conditions: MDA-MB-361, HER-2 +ve cell line, 24 hours
Excerpt: as §1

[3] = system: MDA-MB-436; test: MTT assay, MDA-MB-436; format: cell-based; conditions: Homo sapiens, 24 h, MDA-MB-436, TNBC cell line, read-out: IC50 value after 24 hours of treatment
Excerpt: as §1

[4] = system: new blood vessel formation; test: Matrigel plug anti-angiogenic assay; format: in vivo, mouse; conditions: in plugs 25 μg/mg or daily ip 30 or 100 mg/kg, 10 days
Protocol: VEGF-165 and FGF-2 treated Matrigel plugs will be implanted on Day 0 into C57BL/6 mice. Mice will be treated with either vehicle, AGX51, or a compound of the present technology (such as AGX-A). The AGX51 and a compound of the present technology will be provided either in the plugs (25 μg/mg) or by daily ip treatment (30 or 100 mg/kg) for 10 days. Plugs will be harvested on Day 10, fixed and paraffin embedded. Three sections ([…]) of each plug will be stained with an anti-CD31 antibody and counterstained with hematoxylin and eosin stain. CD31-positive microvessels will be counted for one entire cross-section per plug and the average micro-vessel density±SD vessels will be determined. Student's t-test will be used for statistical analysis.

[5] = system: MDA-MB-157; test: MTT assay, MDA-MB-157; format: cell-based; conditions: Homo sapiens, 24 h, MDA-MB-157, TNBC cell line, read-out: IC50 value after 24 hours of treatment
Excerpt: as §1

[6] = system: cholangiocarcinoma cells (SNU1079, SNU1196); test: AGX-A cyclodextrin formulations on cholangiocarcinoma cells (24 hour cell viability); format: cell-based
Protocol: To overcome the issue DMSO posed, investigations were performed to develop a formulation that was compatible with AGX-A as well as well-suited for administration.
Ultimately, a particularly efficacious formulation employing 2-hydroxypropyl-β-cyclodextrin (“HPBCD”) was discovered. […] Representative data is illustrated in FIGS. 25A-25B which provide the results of 24 hour cell viability studies for SNU1079 cells and SNU1196 cells, respectively.

Row | Compound | IC50 [1] [µM] | percentage at 60 μM (IC50 NA) [2] | IC50 [3] [µM] | new blood vessel formation in Matrigel plugs [4] | IC50 [5] [µM] | AGX-A activity against cholangiocarcinoma cells ([6]; aqueous solution with HPBCD, 24 hour) | AGX-A induced cell death ([6]; formulations with sulfobutylether-β-cyclodextrin (CAPTISOL))
1 | CCC(=O)N(CCC(c1ccc2c(c1)OCO2)c1ccccc1OC)Cc1ccccc1 (racemic) [AGX51, N-(3-(benzo[d][1,3]dioxol-5-yl)-3-(2-methoxyphenyl)propyl)-N-benzylpropionamide] | 36.6 | NA (60 μM = 53%) | 30.9 | significant protection from new blood vessel formation | 22.3 |  | 
2 | COc1ccccc1C(CCNCc1ccccc1)c1ccc(OC(C)C)cc1 (stereo not shown) [AGX-A, N-benzyl-3-(4-isopropoxyphenyl)-3-(2-methoxyphenyl)propan-1-anine] |  |  |  |  |  | preserving AGX-A activity | neutralized AGX-A induced cell death

— patent US20220356163A1, “SMALL MOLECULE INHIBITORS OF Id PROTEINS” (MEMORIAL SLOAN KETTERING CANCER CENTER, priority 2019, published 2022)
